Data reported in patent publication US20210161997A1, “TREATING DISEASES VIA TARGETED MODULATION OF GENE SIGNALING NETWORKS” (Camp4 Therapeutics Corporation, priority 2018, published 2021).

Columns and labels:
ANGPTL3 = assay: RNA-seq of ANGPTL3 expression in compound-treated primary human hepatocytes; assay type: cell-based; conditions: primary human hepatocytes (Table 12)
Procedure, shortened: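 Cryopreserved primary human hepatocytes from three donors, plated at 375,000 cells/well, switched to complete or modified maintenance medium, then dosed with compound (stocks at 1000× final) for about 18 h. Poly(A) mRNA was sequenced directionally, mapped to GRCh38 with STAR, and gene-level abundance (counts, FPKM) estimated with RSEM against GENCODE 24.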

LDLR = assay: RNA-seq of LDLR expression in compound-treated primary human hepatocytes; assay type: cell-based
Protocol: (§1) Human hepatocytes were obtained from two donors from Massachusetts General Hospital, namely MGH54 and MGH63, and one donor from Lonza, namely HUM4111B. Cryopreserved hepatocytes were cultured in plating media for 16 hours, transferred to maintenance media for 4 hours. Cultured on serum-free media for 2 hours, then a compound was added. The hepatocytes were maintained on the serum-free media for 16 hours prior to gene expression analysis. Primary human hepatocytes were stored in the vapor phase of a liquid nitrogen freezer (about −130° C.).
(§2) Human hepatocytes cultured as described above were plated in 24-well format, adding 375,000 cells per well in a volume of 500 ul plating medium. Four hours before treatment, cells were washed with PBS and the medium was changed to either: fresh maintenance medium (complete) or modified maintenance medium.
(§3) Compound stocks were prepared at 1000× final concentration and added in a 2-step dilution to the medium to reduce risk of a compound precipitating out of solution when added to the cells, and to ensure reasonable pipetting volumes. One at a time, each compound was first diluted 10-fold in warm (about 37° C.) modified maintenance medium (initial dilution=ID), mixed by vortexing, and the ID was diluted 100-fold into the cell culture (e.g. 5.1 ul into 1 well of a 24-well plate containing 0.5 mL medium). The plate was mixed by carefully swirling and after all wells were treated and returned to the incubator overnight. If desired, separate plates/wells were treated with vehicle-only controls and/or positive controls. If using multi-well plates, controls were included on each plate. After about 18 hours, cells were harvested for further analysis, e.g., ChIP-seq, RNA-seq, ATAC-seq, etc.
(§4) This protocol is a modified version of the following protocols: MagMAX mirVana Total RNA Isolation Kit User Guide (Applied Biosystems #MAN0011131 Rev B.0), NEBNext Poly(A) mRNA Magnetic Isolation Module (E7490), and NEBNext Ultra Directional RNA Library Prep Kit for Illumina (E7420) (New England Biosystems #E74901).
(§5) The MagMAX mirVana kit instructions (the section titled “Isolate RNA from cells” on pages 14-17) were used for isolation of total RNA from cells in culture. Two hundred μl of Lysis Binding Mix was used per well of the multiwell plate containing adherent cells (usually a 24-well plate).
(§6) For mRNA isolation and library prep, the NEBNext Poly(A) mRNA Magnetic Isolation Module and Directional Prep kit was used. RNA isolated from cells above was quantified, and prepared in […] of each sample in 50 μl of nuclease-free water. This protocol may be run in microfuge tubes or in a 96-well plate.
(§7) All pass filter reads from each sample were mapped against the human genome (assembly GRCh38/GCA_000001405.15 “no alt” analysis set merged with hs38d1/GCA_000786075.2) using two pass mapping via STAR version 2.5.3a (alignment parameters alignIntronMin=20; alignIntronMax=1000000; outFilterMismatchNmax=999; outFilterMismatchNoverLmax=0.05; outFilterType=BySJout; outFilterMultimapNmax=20; alignSJoverhangMin=8; alignSJDBoverhangMin=1; alignMatesGapMax=1000000) (Dobin et al., Bioinformatics (2012) 29(1):15-21). Genomic alignments were converted to transcriptome alignments based on reference transcript annotations from the Human GENCODE Gene Set release 24 (Harrow et al., Genome Res. (2012) 22(9): 1760-1774). Using unique and multimapped transcriptomic alignments, gene-level abundance estimates were computed using RSEM version 1.3.0 (Li and Dewey, BMC Bioinformatics (2011) 12:323) in a strand-aware manner, and including confidence interval sampling calculations, to arrive at posterior mean estimates (PME) of abundances (counts and normalized FPKM—fragments per kilobase of exon per million mapped fragments) from the underlying Bayesian model. Standard QC were applied (read integrity, mapping statistics, library complexity, fragment bias) to remove unsatisfactory samples.

PCSK9 = assay: RNA-seq of PCSK9 expression in compound-treated primary human hepatocytes; assay type: cell-based
Protocol: as §1, §2, §3, §4, §5, §6, §7

SERPINC1 = assay: RNA-seq of SERPINC1 expression in compound-treated primary human hepatocytes; assay type: cell-based; conditions: significance FPKM ≥1, log 2(fold change) ≥0.5, q-value ≤0.05
Protocol: Human hepatocytes were obtained from two donors from Massachusetts General Hospital, namely MGH54 and MGH63, and one donor from Lonza, namely HUM4111B. Cryopreserved hepatocytes were cultured in plating media for 16 hours, transferred to maintenance media for 4 hours. Cultured on serum-free media for 2 hours, then a compound was added. The hepatocytes were maintained on the serum-free media for 16 hours prior to gene expression analysis. Primary human hepatocytes were stored in the vapor phase of a liquid nitrogen freezer (about -130° C.). Human hepatocytes cultured as described above were plated in 24-well format, adding 375,000 cells per well in a volume of 500 ul plating medium. Four hours before treatment, cells were washed with PBS and the medium was changed to either: fresh maintenance medium (complete) or modified maintenance medium. Compound stocks were prepared at 1000× final concentration and added in a 2-step dilution to the medium to reduce risk of a compound precipitating out of solution when added to the cells, and to ensure reasonable pipetting volumes. […] The plate was mixed by carefully swirling and after all wells were treated and returned to the incubator overnight. If desired, separate plates/wells were treated with vehicle-only controls and/or positive controls. If using multi-well plates, controls were included on each plate. After about 18 hours, cells were harvested for further analysis, e.g., ChIP-seq, RNA-seq, ATAC-seq, etc. This protocol is a modified version of the following protocols: MagMAX mirVana Total RNA Isolation Kit User Guide (Applied Biosystems #MAN0011131 Rev B.0), NEBNext Poly(A) mRNA Magnetic Isolation Module ([…]), and NEBNext Ultra Directional RNA Library Prep Kit for Illumina ([…]) (New England Biosystems #E74901). […] Two hundred μl of Lysis Binding Mix was used per well of the multiwell plate containing adherent cells (usually a 24-well plate). For mRNA isolation and library prep, the NEBNext Poly(A) mRNA Magnetic Isolation Module and Directional Prep kit was used. RNA isolated from cells above was quantified, and prepared in […] of each sample in 50 μl of nuclease-free water. This protocol may be run in microfuge tubes or in a 96-well plate. […] Genomic alignments were converted to transcriptome alignments based on reference transcript annotations from the Human GENCODE Gene Set release 24 (Harrow et al., Genome Res. […] Using unique and multimapped transcriptomic alignments, gene-level abundance estimates were computed using RSEM version 1.3.0 (Li and Dewey, BMC Bioinformatics (2011) 12:323) in a strand-aware manner, and including confidence interval sampling calculations, to arrive at posterior mean estimates (PME) of abundances (counts and normalized FPKM-fragments per kilobase of exon per million mapped fragments) from the underlying Bayesian model. Standard QC were applied (read integrity, mapping statistics, library complexity, fragment bias) to remove unsatisfactory samples. Differential gene expression was computed using the negative binomial model implemented by DESeq2 version 1.16.1 (Love et al., Genome Biol. (2014) 15(12):550). […] RNA-seq signals were also normalized by read depth and visualized using the UCSC browser. To identify small molecules that modulate target gene expression, primary human hepatocytes were prepared as a monoculture, and at least one small molecule compound was applied to the cells. RNA-seq was performed to determine the effects of the compounds on the expression of the target genes in hepatocytes. Fold change was calculated by dividing the level of expression in the cell system that had been perturbed by the level of expression in an unperturbed system.

UGT1A1 = assay: RNA-seq of UGT1A1 expression in compound-treated primary human hepatocytes; assay type: cell-based
Procedure, shortened: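 Cryopreserved primary human hepatocytes from three donors were plated in 24-well format, then treated with compound diluted from 1000× stocks in serum-free maintenance medium for about 16–18 h. Poly(A) RNA-seq log2 fold change was computed against vehicle/pan-experiment controls. Significance required FPKM ≥1, log2FC ≥0.5 and q ≤0.05.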

SLC37A4 = assay: RNA-seq of SLC37A4 expression in compound-treated primary human hepatocytes; assay type: cell-based
Protocol: as §1, §2, §3, §4, §5, §6, §7

SERPINC1 mRNA [1] = assay: Quantitative PCR of SERPINC1 mRNA in primary human hepatocytes (Lonza Hu4282) treated with compounds; assay type: cell-based; conditions: quantitative PCR; for SERPINC1 mRNA, H8290, 1 uM / SERPINC1 mRNA, H8290, 10 uM: hepatocytes H8290
SERPINC1 mRNA [2] = assay: Quantitative PCR of SERPINC1 mRNA in mouse hepatocytes treated with compounds; assay type: cell-based
Protocol: Samples were amplified using Taqman probes from ThermoFisher.
In some examples, RQ Min and RQ Max values are also reported. RQ Min and RQ Max are the minimum and maximum relative levels of gene expression in the test samples, respectively. They were calculated using the confidence level set in the analysis settings and the confidence level was set to one standard deviation (SD). These values were calculated using standard deviation as follows: […].
Compounds were tested in hepatocytes for upregulation of SERPINC1 mRNA for identification of potential treatments of SERPINC1/AT III deficiency.

SERPINC1 mRNA [3] = assay: RNA seq of SERPINC1 in MGH54 cells treated with select compounds; assay type: cell-based, human; conditions: compound 10 uM
JAG1 = assay: RNA-seq of JAG1 expression in compound-treated primary human hepatocytes; assay type: cell-based
Procedure, shortened: (§8)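 Cryopreserved primary human hepatocytes from three donors, switched to serum-free medium 2 h before compound addition, were harvested about 18 h after treatment. Poly(A) mRNA was sequenced and aligned to GENCODE release 24, with DESeq2 negative binomial differential expression. Fold change is the treated level over the unperturbed level.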

NOTCH2 = assay: RNA-seq of NOTCH2 expression in compound-treated primary human hepatocytes; assay type: cell-based; conditions: primary human hepatocytes
Procedure, shortened: as §8

Row | SMILES | ANGPTL3 Fold Change (Log2) (ANGPTL3) | LDLR Fold Change (Log2) (LDLR) | PCSK9 Fold Change (Log2) (PCSK9) | SERPINC1 Fold Change (Log2) (SERPINC1) | also measured
1 | C=CC(=O)Nc1cccc(Nc2nc(Nc3ccc(N4CCN(C(C)=O)CC4)cc3OC)ncc2C(F)(F)F)c1 [CO-1686 (Rociletinib), Rociletinib] | −0.67 | 0.51 | 0 |  | 
2 | COCCOc1ccc2c(c1)ncn2-c1ccc2cccc(N3CCC(N)CC3)c2n1 [CP-673451] |  |  |  | 2.53 | UGT1A1 Fold Change (Log2) (UGT1A1): 1.82 Log2; SLC37A4 Fold Change (Log2) (SLC37A4): 1.17 Log2
3 | CS[C@H]1SC[C@H]2C(=O)N(C)[C@@H](C(C)C)C(=O)OC[C@@H](NC(=O)c3cnc4ccccc4n3)C(=O)N[C@@H](C)C(=O)N(C)[C@@H]1C(=O)N(C)[C@@H](C(C)C)C(=O)OC[C@@H](NC(=O)c1cnc3ccccc3n1)C(=O)N[C@@H](C)C(=O)N2C [Echinomycin] |  |  |  | 2.29 | UGT1A1 Fold Change (Log2) (UGT1A1): 1.10 Log2; SLC37A4 Fold Change (Log2) (SLC37A4): 1.59 Log2
4 | COc1cc2c(Oc3ccc(NC(=O)C4(C(=O)Nc5ccc(F)cc5)CC4)cc3F)ccnc2cc1OCCCN1CCOCC1 [Foretinib] |  |  |  |  | SERPINC1 mRNA, H8290, 1 uM (SERPINC1 mRNA [1]; compound 1 uM): 1; SERPINC1 mRNA, H8290, 10 uM (SERPINC1 mRNA [1]; compound 10 uM): 2.2; SERPINC1 mRNA, Lonza Hu4282, 1 uM (SERPINC1 mRNA [1]; primary human hepatocytes Lonza Hu4282, compound 1 uM): 1.04; SERPINC1 mRNA, Lonza Hu4282, 10 uM (SERPINC1 mRNA [1]; primary human hepatocytes Lonza Hu4282, compound 10 uM): 1.36; SERPINC1 mRNA, Mouse Heps, 1 uM (SERPINC1 mRNA [2]; compound 1 uM): 1.05; SERPINC1 mRNA, Mouse Heps, 10 uM (SERPINC1 mRNA [2]; compound 10 uM): 0.93; SERPINC1, MGH54 (RNA seq), 10 uM (SERPINC1 mRNA [3]): 0
5 | COc1cccc2c1C(=O)c1c(O)c3c(c(O)c1C2=O)C[C@@](O)(/C(CO)=N/NC(=O)CCCCCN1C(=O)C=CC1=O)C[C@@H]3O[C@H]1C[C@H](N)[C@H](O)[C@H](C)O1 [INNO-206 (aldoxorubicin), aldoxorubicin] |  |  |  | 1.00 | JAG1 Fold Change (Log2) (JAG1; primary human hepatocytes): 0.84 Log2; Significant modulation of JAG1 (in words) (JAG1; summary of Table 6): significantly modulate only JAG1; NOTCH2 Fold Change (Log2) (NOTCH2): 0 Log2
6 | O=c1cc(N2CCOCC2)oc2c(-c3ccccc3)cccc12 [LY294002] | 0 | 0.48 | −0.51 |  | UGT1A1 Fold Change (Log2) (UGT1A1): 1.36 Log2
7 | NS(=O)(=O)C#Cc1ccccc1 [Pifithrin-u, Pifithrin-μ] | −0.46 | 0.60 | −0.54 | 0.79 | 
8 | COCCOc1ccc(N2CCN(CCn3ncc4c3nc(N)n3nc(-c5ccco5)nc43)CC2)cc1 [Preladenant] | −0.73 | 1.07 | 0 |  | 
9 | CN1CCC(CNc2ccc3ncc(-c4cccc(OC(F)(F)F)c4)n3n2)CC1 [SGI-1776] | −0.52 | 0.48 | 0 |  | 
10 | CO[C@H]1C[C@@H]2CC[C@@H](C)[C@@](O)(O2)C(=O)C(=O)N2CCCC[C@H]2C(=O)O[C@H]([C@H](C)C[C@@H]2CC[C@@H](OC(=O)C(C)(CO)CO)[C@H](OC)C2)CC(=O)[C@H](C)/C=C(\C)[C@@H](O)[C@@H](OC)C(=O)[C@H](C)C[C@H](C)/C=C/C=C/C=C/1C [Temsirolimus] |  |  |  |  | SERPINC1 mRNA, H8290, 1 uM (SERPINC1 mRNA [1]; compound 1 uM): 1.2; SERPINC1 mRNA, H8290, 10 uM (SERPINC1 mRNA [1]; compound 10 uM): 1.6; SERPINC1, MGH54 (RNA seq), 10 uM (SERPINC1 mRNA [3]): 0
11 | CNC(=O)Nc1ccc(-c2nc(N3CC4CCC(C3)O4)c3cnn(C4CCC5(CC4)OCCO5)c3n2)cc1 [WYE-125132 (WYE-132)] | −0.42 | 1.46 | −0.91 |  | 
